{"source": "patent US20210353650A1", "about": "(priority 2020, published 2021)", "origin": "cited, not measured here", "key": {"[1]": {"tested_on": "Vero African green monkey kidney epithelial cells", "settings": "Vero cells used in the CPE assay; 2012 study"}, "[2]": {"settings": "nonhuman primates, daily administration of 10 mg/kg; EMA 2020"}, "[3]": {"tested_on": "Vero E6 cells"}}}
{"molecule": "CCC(CC)COC(=O)[C@H](C)N[P@](=O)(OC[C@H]1O[C@@](C#N)(c2ccc3c(N)ncnn23)[C@H](O)[C@@H]1O)Oc1ccccc1", "note": "[Remdesivir]", "values": [{"measurement": "cytotoxicity toward host cells", "setting": "[1]", "value": "without causing cytotoxicity"}, {"measurement": "intracellular levels of the triphosphate form", "setting": "[2]", "value": "sustained intracellular levels"}, {"measurement": "cytotoxic concentration", "setting": "[3]", "value": "> 100", "unit": "mM"}]}
